Measured values: US9284318B2, “Protein kinase inhibitors” (Pharmascience, Inc., priority 2011, dated 2016)

Tests used:
Flt3 (h) = molecular target: T1, Flt3 (h) (Homo sapiens, UniProt P36888); assay: Kinase Profiler Service Assay, Flt3; type: biochemical; details: at 100 nM
T1 construct: purchased Millipore (Kinase Profiler Service)
T1 sequence (P36888 27-993): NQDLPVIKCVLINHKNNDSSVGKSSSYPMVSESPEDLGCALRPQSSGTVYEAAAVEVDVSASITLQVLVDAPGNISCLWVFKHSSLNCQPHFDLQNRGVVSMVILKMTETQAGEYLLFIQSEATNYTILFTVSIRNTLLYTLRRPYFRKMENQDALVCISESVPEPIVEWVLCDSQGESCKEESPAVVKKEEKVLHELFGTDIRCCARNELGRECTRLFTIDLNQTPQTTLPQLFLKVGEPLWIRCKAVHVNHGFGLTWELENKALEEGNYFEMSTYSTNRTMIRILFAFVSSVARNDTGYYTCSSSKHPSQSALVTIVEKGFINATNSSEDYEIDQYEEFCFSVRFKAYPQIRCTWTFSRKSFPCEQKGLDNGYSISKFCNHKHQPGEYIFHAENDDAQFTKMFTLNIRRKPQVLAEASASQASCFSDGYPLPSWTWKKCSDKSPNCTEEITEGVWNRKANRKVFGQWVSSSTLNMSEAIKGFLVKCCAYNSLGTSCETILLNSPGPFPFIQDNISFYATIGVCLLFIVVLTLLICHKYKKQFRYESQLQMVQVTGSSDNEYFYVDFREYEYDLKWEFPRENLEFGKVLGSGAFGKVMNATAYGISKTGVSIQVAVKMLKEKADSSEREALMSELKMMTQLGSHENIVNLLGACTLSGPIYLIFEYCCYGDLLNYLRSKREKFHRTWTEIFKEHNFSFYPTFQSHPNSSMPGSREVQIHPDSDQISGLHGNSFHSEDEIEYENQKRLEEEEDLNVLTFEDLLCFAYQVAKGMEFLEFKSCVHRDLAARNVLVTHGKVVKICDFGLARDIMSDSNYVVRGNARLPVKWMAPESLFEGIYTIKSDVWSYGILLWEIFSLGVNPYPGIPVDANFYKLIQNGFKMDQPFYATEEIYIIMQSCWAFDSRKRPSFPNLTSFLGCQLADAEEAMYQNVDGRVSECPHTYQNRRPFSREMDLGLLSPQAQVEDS
Method: (§1) Selected kinase binding affinities were determined using Kinase Profiler™ Service Assay Protocols (Millipore, V53.0).

MV4-11 cells = assay: Human MV4-11 biphenotypic B myelomonocytic leukemia cell survival assay; type: cell-based; details: cell survival at 72h, Cell Titer-Glo
Method: Human MV4-11 Biphenotypic B Myelomonocytic Leukemia Cell Survival Assay
Biphenotypic B myelomonocytic leukemia MV4-11 cells (ATCC CRL-9591) were cultured in suspension at 37° C., 5% CO2 in complete medium (RPMI supplemented with 10% FBS, 1% penicillin/streptomycin). One day prior to treatment, cells per seeded in 96-well plates at 8000 cells/well in complete medium. The following day, triplicate wells were treated with compound curves of 100, 1000 or 10,000 nM starting concentration according to compound potency. Cell survival was measured 72h later by Cell Titer-Glo Luminescent Assay (Promega). Luminescence was read using a Tecan Infinite F200 microplate reader. EC50 values (50% survival in the presence of compound as compared to vehicle treated controls) were calculated from non-linear fit dose response compound curves using CambridgeSoft BioAssay software (Perkin Elmer).

PDGFR-b(h) = molecular target: T2, PDGFR-b(h) (Homo sapiens, UniProt P09619); assay: Kinase Profiler Service Assay, PDGFR-b; type: biochemical; details: at 100 nM
T2 construct: purchased Millipore (Kinase Profiler Service)
Method: as §1

cFMS(h) = molecular target: T3, cFMS(h) (Homo sapiens, UniProt P07333); assay: Kinase Profiler Service Assay, cFMS; type: biochemical; details: at 100 nM
T3 construct: purchased Millipore (Kinase Profiler Service)
Method: as §1

[1] = molecular target: T4, recombinant human colony stimulating factor 1 receptor (FMS) (Homo sapiens, UniProt P07333); assay: Biochemical cFMS (CSF1R) fluorescence polarization kinase assay; details: 10 μM ATP, 100 μM substrate, 60 minutes
T4 construct: containing the catalytic domain (amino acids 538-910); His tag; purchased Invitrogen; host or cells: insect cells
T4 sequence (P07333 538-910): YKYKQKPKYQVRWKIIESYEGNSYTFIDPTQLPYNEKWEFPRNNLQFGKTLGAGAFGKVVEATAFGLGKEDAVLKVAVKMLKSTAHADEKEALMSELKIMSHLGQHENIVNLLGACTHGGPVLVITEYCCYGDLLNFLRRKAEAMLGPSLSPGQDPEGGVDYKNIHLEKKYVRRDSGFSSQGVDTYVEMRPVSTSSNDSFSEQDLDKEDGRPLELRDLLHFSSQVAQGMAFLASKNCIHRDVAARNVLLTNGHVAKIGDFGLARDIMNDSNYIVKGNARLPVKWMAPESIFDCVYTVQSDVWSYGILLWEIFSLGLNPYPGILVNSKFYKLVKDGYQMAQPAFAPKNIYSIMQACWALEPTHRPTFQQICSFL
Method: Biochemical cFMS (CSF1R) Assay:
Fluorescence polarization-based kinase biochemical assays were performed in 384 well-plate format using histidine tagged recombinant human colony stimulating factor 1 receptor (FMS) supplied from Invitrogen™ (containing the catalytic domain (amino acids 538-910), expressed in insect cells and activated in vitro via auto phosphorylation) and a modified protocol of the KinEASE™ FP Fluorescein Green Assay supplied from Millipore™.
Kinase reactions were performed in 384 well plate format at room temperature for 60 minutes in presence of 100 μM substrate, 10 μM ATP and variable test article concentrations. The reaction was stopped with EDTA/KinEASE™ detection reagents and the polarization measured on a Tecan 500 instrument. From the dose-response curve obtained, the IC50 was estimated using Graph pad Prisms® using a non linear fit curve.

FLT4 = molecular target: T5, FLT4 (Homo sapiens, UniProt P35916); assay: Kinase Profiler Service Assay, FLT4; type: biochemical; details: at 100 nM
T5 construct: purchased Millipore (Kinase Profiler Service)
Method: as §1

Tie2 = molecular target: T6, Tie2 (Homo sapiens, UniProt Q02763); assay: Kinase Profiler Service Assay, Tie2; type: biochemical; details: at 100 nM
T6 construct: purchased Millipore (Kinase Profiler Service)
Method: as §1

[2] = system: M-NFS-60 M-CSF-dependent myeloid leukemia cells; assay: Murine M-CSF-dependent M-NFS-60 cell survival assay; type: cell-based; details: Mus musculus; cell survival at 72 hours, 20 ng/ml M-CSF, Cell Titer-Glo
Method: Cellular Assays: Murine M-CSF-Dependent M-NFS-60 Cell Survival Assay
Murine M-NFS-60 M-CSF-dependent myeloid leukemia cells were purchased from ATCC (CRL-1838). Cells were routinely cultured at 37° C., 5% CO2 in complete medium (RPMI supplemented with 10% FBS, 1% penicillin/streptomycin, 50 uM beta mercaptoethanol) containing 30 ng/ml recombinant murine M-CSF (Peprotech 315-02). For survival assays, cells were transferred to depleted medium (complete medium depleted of M-CSF) for 24 hours prior to initiation of each experiment. M-CSF-starved cells were harvested and re-suspended in complete medium containing 20 ng/ml M-CSF. Cells were seeded at 25,000 cells/well in 96-well plates and incubated for 1 hour at 37° C., 5% CO2. Cells were treated with 1 uM or 10 uM compound curves in triplicate and cell survival was measured 72 hours later by Cell Titer-Glo Luminescent Assay (Promega). Luminescence was read using a Tecan Infinite F200 microplate reader. EC50 values (50% survival in the presence of compound as compared to vehicle treated controls) were calculated from non-linear fit dose response compound curves using GraphPad Prism Software.

Aurora-B(h) = molecular target: T7, Aurora-B(h) (Homo sapiens, UniProt Q96GD4); assay: Kinase Profiler Service Assay, Aurora-B; type: biochemical; details: at 100 nM
T7 construct: purchased Millipore (Kinase Profiler Service)
Method: as §1

FGFR1 = molecular target: T8, FGFR1 (Homo sapiens, UniProt P11362); assay: Kinase Profiler Service Assay, FGFR1; type: biochemical; details: at 100 nM
T8 construct: purchased Millipore (Kinase Profiler Service)
Method: as §1

KDR(h) = molecular target: T9, KDR(h) (Homo sapiens, UniProt P35968); assay: Kinase Profiler Service Assay, KDR; type: biochemical; details: at 100 nM
T9 construct: purchased Millipore (Kinase Profiler Service)
Method: as §1

216 other kinases = assay: Kinase Profiler Service Assay, selectivity panel; type: biochemical; details: at 300 nM
Method: as §1

EphA2 = molecular target: T10, EphA2 (Homo sapiens, UniProt P29317); assay: Kinase Profiler Service Assay, EphA2; type: biochemical; details: at 100 nM
T10 construct: purchased Millipore (Kinase Profiler Service)
Method: as §1

T3 sequence (P07333 20-972): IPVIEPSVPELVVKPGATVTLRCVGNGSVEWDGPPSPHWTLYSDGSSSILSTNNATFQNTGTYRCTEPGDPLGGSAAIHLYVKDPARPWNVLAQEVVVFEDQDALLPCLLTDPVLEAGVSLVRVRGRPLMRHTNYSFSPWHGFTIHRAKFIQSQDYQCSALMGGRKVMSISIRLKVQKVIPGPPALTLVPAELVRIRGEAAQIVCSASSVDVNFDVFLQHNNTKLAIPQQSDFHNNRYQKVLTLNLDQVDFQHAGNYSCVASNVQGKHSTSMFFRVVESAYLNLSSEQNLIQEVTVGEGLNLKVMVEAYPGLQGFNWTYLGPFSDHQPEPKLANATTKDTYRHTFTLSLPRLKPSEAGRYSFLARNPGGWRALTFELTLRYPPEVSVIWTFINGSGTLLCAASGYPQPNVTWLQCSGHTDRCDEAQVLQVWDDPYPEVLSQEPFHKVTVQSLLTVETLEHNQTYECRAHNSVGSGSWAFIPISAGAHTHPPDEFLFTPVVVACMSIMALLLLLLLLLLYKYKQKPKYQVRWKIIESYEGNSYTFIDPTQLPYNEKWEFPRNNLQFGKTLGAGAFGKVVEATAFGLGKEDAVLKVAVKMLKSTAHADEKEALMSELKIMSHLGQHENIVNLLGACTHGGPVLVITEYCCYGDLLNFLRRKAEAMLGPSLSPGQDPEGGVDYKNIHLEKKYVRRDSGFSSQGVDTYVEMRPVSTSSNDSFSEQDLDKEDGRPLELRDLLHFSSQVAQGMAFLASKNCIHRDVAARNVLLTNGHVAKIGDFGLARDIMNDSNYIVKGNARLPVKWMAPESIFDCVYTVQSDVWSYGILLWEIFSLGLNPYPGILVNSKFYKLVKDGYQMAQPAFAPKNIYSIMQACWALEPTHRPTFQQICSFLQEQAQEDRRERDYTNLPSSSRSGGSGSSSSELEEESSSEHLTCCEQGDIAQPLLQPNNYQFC
T9 sequence (P35968 20-1356): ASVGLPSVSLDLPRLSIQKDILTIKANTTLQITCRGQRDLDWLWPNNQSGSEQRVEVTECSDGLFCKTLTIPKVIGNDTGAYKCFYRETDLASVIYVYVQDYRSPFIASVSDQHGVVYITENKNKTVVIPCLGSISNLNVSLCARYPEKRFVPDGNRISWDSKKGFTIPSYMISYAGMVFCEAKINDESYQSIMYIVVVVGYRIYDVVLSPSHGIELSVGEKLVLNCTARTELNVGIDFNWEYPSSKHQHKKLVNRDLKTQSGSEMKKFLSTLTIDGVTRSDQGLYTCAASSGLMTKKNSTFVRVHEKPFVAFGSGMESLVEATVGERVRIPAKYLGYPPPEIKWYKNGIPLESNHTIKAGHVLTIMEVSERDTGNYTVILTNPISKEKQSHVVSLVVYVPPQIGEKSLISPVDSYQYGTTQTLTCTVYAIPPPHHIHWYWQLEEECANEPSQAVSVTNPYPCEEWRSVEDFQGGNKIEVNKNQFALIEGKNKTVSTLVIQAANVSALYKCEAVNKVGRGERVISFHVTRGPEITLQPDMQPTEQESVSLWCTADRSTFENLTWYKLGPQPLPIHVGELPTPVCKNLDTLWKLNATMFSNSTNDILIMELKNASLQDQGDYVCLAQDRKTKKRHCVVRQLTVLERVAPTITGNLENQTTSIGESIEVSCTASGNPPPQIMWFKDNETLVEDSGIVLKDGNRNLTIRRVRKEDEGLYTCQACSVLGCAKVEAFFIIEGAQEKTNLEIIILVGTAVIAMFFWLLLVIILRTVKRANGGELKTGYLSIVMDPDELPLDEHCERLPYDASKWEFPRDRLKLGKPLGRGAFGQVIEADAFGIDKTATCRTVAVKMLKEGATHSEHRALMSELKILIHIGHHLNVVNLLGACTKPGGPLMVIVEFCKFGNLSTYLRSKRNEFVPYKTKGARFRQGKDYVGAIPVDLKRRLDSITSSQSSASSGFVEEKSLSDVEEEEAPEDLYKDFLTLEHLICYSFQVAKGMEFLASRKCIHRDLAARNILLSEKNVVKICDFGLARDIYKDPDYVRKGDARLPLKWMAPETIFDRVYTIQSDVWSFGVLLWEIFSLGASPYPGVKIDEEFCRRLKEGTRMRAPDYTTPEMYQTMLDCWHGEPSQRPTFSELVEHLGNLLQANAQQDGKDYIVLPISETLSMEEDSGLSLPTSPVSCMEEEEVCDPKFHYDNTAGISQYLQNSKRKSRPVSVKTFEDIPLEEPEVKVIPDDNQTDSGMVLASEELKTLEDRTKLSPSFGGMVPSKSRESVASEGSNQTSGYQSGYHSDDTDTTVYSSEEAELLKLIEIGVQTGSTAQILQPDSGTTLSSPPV
T8 sequence (P11362 22-822): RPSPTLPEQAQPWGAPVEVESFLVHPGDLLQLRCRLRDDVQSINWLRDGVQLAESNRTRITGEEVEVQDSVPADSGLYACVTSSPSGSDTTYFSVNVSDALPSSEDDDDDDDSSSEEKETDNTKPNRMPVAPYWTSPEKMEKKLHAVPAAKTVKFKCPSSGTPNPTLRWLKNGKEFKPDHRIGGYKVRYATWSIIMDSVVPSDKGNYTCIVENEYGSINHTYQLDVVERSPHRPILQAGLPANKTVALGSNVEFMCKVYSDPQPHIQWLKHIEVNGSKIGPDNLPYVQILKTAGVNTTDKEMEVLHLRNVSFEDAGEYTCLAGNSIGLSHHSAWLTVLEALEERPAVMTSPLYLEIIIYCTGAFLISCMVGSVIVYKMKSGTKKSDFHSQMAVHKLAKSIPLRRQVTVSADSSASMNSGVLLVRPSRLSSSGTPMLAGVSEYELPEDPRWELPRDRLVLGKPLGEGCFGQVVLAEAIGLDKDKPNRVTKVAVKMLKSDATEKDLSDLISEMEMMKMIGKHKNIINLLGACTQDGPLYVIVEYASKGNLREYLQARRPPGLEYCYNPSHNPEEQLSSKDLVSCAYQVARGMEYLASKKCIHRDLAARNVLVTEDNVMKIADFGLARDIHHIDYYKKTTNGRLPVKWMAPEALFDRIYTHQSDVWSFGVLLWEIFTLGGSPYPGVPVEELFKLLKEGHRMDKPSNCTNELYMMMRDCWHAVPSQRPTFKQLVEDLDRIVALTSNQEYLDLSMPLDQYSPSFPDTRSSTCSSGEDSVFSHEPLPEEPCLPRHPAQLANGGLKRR
T10 sequence (P29317 24-976): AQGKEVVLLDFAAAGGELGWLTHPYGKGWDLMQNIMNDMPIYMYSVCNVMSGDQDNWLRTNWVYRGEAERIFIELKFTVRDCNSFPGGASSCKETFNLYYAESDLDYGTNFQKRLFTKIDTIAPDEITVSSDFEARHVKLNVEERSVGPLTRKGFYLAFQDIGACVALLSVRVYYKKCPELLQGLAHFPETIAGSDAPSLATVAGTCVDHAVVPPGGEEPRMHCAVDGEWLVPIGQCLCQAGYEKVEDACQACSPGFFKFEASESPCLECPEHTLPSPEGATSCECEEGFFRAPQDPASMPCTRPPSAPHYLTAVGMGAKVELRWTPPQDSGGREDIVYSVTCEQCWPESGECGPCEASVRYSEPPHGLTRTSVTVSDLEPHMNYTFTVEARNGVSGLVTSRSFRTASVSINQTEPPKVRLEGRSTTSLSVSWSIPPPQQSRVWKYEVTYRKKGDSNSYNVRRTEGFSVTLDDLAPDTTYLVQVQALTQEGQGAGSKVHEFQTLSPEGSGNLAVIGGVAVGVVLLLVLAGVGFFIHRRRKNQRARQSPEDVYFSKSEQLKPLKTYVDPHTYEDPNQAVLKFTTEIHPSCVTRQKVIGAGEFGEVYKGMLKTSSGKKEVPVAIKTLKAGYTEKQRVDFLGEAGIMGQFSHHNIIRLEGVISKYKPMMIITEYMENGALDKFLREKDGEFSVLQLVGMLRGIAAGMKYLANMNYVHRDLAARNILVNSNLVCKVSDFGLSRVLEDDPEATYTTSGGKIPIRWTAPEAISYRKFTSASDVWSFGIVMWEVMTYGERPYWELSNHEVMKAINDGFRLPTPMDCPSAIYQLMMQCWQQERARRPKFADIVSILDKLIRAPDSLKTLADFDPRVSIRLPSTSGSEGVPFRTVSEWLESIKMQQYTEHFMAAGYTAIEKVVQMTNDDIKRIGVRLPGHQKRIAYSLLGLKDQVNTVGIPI
T2 sequence (P09619 33-1106): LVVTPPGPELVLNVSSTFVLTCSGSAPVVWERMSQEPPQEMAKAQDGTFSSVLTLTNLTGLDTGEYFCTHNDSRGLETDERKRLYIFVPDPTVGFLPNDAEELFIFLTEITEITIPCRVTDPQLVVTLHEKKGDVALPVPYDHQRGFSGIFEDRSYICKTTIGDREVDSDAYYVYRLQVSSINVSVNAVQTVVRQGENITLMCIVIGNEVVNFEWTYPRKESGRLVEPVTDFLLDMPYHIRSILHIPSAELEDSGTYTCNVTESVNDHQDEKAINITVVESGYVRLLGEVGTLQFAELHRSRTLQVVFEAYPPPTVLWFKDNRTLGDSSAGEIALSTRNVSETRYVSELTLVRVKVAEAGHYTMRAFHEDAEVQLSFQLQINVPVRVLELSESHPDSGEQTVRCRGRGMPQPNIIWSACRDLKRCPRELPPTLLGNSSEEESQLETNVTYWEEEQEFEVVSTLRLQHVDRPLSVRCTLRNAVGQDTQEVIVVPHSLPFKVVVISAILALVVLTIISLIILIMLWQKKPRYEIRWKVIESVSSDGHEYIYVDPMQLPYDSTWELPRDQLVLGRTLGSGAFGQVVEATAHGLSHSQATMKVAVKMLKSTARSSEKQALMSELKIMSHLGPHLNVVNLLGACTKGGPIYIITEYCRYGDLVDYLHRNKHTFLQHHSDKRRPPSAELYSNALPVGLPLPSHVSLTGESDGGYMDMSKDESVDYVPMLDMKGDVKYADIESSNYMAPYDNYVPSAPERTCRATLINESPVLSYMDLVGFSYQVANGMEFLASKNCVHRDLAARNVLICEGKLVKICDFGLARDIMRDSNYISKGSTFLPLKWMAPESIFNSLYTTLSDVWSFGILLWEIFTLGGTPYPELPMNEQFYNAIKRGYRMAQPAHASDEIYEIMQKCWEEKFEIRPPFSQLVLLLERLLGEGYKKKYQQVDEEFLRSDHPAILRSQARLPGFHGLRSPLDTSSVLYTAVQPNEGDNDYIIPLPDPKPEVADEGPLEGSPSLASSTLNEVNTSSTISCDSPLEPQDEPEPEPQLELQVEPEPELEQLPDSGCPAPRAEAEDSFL

| Compound | EC50 (MV4-11 cells) | IC50 [1] | EC50 [2] | other results |
| --- | --- | --- | --- | --- |
| Nc1ncnc2c3c(n(-c4ccc(NC(=O)Nc5ccc(F)cc5)cc4)c12)CCC3 [Compound 14] | < 100 nM | 100 to 1000 nM | < 100 nM | inhibition of Flt3 (Flt3 (h)): inhibits; inhibition of PDGFR-b (PDGFR-b(h)): inhibits; inhibition of cFMS (cFMS(h)): inhibits; inhibition of FLT4 (FLT4): inhibits; inhibition of Tie2 (Tie2): inhibits; inhibition of Aurora-B (Aurora-B(h)): inhibits; inhibition of FGFR1 (FGFR1): inhibits; inhibition of KDR (KDR(h)): inhibits |
| Nc1ncnc2c3c(n(-c4ccc(NC(=O)Nc5cc(C(F)(F)F)ccc5F)cc4)c12)CCC3 [Compound 44] | < 100 nM | 100 to 1000 nM | 100 to 1000 nM | inhibition of Flt3 (Flt3 (h)): inhibits; inhibition of cFMS (cFMS(h)): inhibits; inhibition of 216 other kinases (selectivity) (216 other kinases): ≤ 20%; inhibition of FGFR1 (FGFR1): inhibits; inhibition of EphA2 (EphA2): inhibits; inhibition of KDR (KDR(h)): inhibits |
| COc1ccc(NC(=O)Nc2ccc(-n3c4c(c5ncnc(N)c53)CCC4)cc2)cc1F [Compound 56] | < 100 nM | < 100 nM | < 100 nM |  |
| Nc1ncnc2c3c(n(-c4ccc(NC(=O)Nc5cccc(OC(F)F)c5)cc4)c12)CCC3 [Compound 57] | < 100 nM | 100 to 1000 nM | < 100 nM |  |
| COc1ccc(C(F)(F)F)cc1NC(=O)Nc1ccc(-n2c3c(c4ncnc(N)c42)CCC3)cc1 [Compound 58] | < 100 nM | 100 to 1000 nM | 100 to 1000 nM |  |
| Nc1ncnc2c3c(n(-c4ccc(NC(=O)Nc5ccc(Cl)c(C(F)(F)F)c5)cc4)c12)CCC3 [Compound 59] | < 100 nM | 100 to 1000 nM | 100 to 1000 nM |  |
| Nc1ncnc2c3c(n(-c4ccc(NC(=O)Nc5cc(C(F)(F)F)ccc5F)c(F)c4)c12)CCC3 [Compound 62] | < 100 nM | 100 to 1000 nM | 100 to 1000 nM |  |
| Nc1ncnc2c3c(n(-c4ccc(NC(=O)Nc5cccc(C(F)(F)F)c5)c(F)c4)c12)CCC3 [Compound 63] | < 100 nM | 100 to 1000 nM | < 100 nM |  |
| CS(=O)(=O)c1ccc(NC(=O)Nc2ccc(-n3c4c(c5ncnc(N)c53)CCC4)cc2)cc1 [Compound 64] | 100 to 1000 nM | 100 to 1000 nM | > 1000 nM |  |
| N#Cc1ccc(NC(=O)Nc2ccc(-n3c4c(c5ncnc(N)c53)CCC4)cc2)cc1 [Compound 65] | < 100 nM | > 1000 nM | 100 to 1000 nM |  |
| N#Cc1cccc(NC(=O)Nc2ccc(-n3c4c(c5ncnc(N)c53)CCC4)cc2)c1 [Compound 66] | < 100 nM | 100 to 1000 nM | 100 to 1000 nM |  |
| Nc1ncnc2c3c(n(-c4ccc(NC(=O)Nc5cc(C(F)(F)F)ccc5F)cc4)c12)COC3 [Compound 67] | < 100 nM | 100 to 1000 nM | 100 to 1000 nM |  |
| Nc1ncnc2c3c(n(-c4ccc(NC(=O)Nc5ccccc5OC(F)F)cc4)c12)CCC3 [Compound 68] | < 100 nM | 100 to 1000 nM | 100 to 1000 nM |  |
| Nc1ncnc2c3c(n(-c4ccc(NC(=O)Nc5cc(C(F)(F)F)ccc5Cl)cc4)c12)CCC3 [Compound 69] | < 100 nM | 100 to 1000 nM | 100 to 1000 nM |  |
| N#Cc1ccccc1NC(=O)Nc1ccc(-n2c3c(c4ncnc(N)c42)CCC3)cc1 [Compound 71] | 100 to 1000 nM | > 1000 nM | > 1000 nM |  |
| CS(=O)(=O)c1cccc(NC(=O)Nc2ccc(-n3c4c(c5ncnc(N)c53)CCC4)cc2)c1 [Compound 72] | < 100 nM | 100 to 1000 nM | 100 to 1000 nM |  |
| C[C@@H](NC(=O)Nc1ccc(-n2c3c(c4ncnc(N)c42)CCC3)cc1)c1ccc(F)cc1 [Compound 73] | < 100 nM | 100 to 1000 nM | 100 to 1000 nM |  |
